Reference: patent US20080311126A1, “Antisense Oligonucleotides Directed to Ribonucleotide Reducatase R2 and Uses Thereof in Combination Therapies for the Treatment of Cancer” (Genesense Technologies, Inc, priority 2004, published 2008)
Oligonucleotides are written 5' to 3', each unit as a sugar letter and its base; * is a phosphorothioate linkage, no mark a phosphodiester; rarer units and linkages stand in square brackets, end groups in braces. Plain capitals give the bases only. d = 2'-deoxy (DNA)

Legend:
Type in all cases: cell-based, human
[1] = tested on: HepG2 hepatocellular carcinoma; assay: Relative colony forming efficiency (Example 17, Table 13); details: averages of 2-8 determinations
How it was run: (§1)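 Antisense phosphorothioates are tested at 0.2 μM unless stated, transfected with DOTMA/DOPE (2.5 μg) for four hours. Colony counts after methylene blue staining give percent inhibition versus vehicle-lipid controls.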

[2] = tested on: T-47D breast ductal carcinoma; assay: as above; details: averages of 2-8 determinations
How it was run: as §1

[3] = tested on: PC-3 prostrate cell adenocarcinoma; assay: as above; details: averages of 2-8 determinations
How it was run: as §1

[4] = tested on: T24 bladder cell carcinoma; assay: as above; details: averages of 2-8 determinations
How it was run: as §1

[5] = tested on: MDA-MB-231 breast cell adenocarcinoma; assay: as above; details: averages of 2-8 determinations
How it was run: as §1

[6] = tested on: HCT116 colon cell carcinoma; assay: as above; details: averages of 2-8 determinations
How it was run: as §1

A549 lung cell carcinoma = assay: as above; details: averages of 2-8 determinations
How it was run: as §1

[7] = tested on: MDA PaCa-2 pancreatic cell carcinoma; assay: as above; details: MIA PaCa-2 pancreatic cell carcinoma, averages of 2-8 determinations
How it was run: as §1

Hela S3 cells = assay: Relative colony forming efficiency, lipofectin +/- oligonucleotide 4 hours; details: Hela S3 cervix carcinoma cells; averages of 2-8 determinations
Experimental: Colony forming efficiency was determined using standard protocols. Briefly, the cells were cultured for 24 hours at 37° C. in growth medium with 10% fetal bovine serum. The cells were washed in 5 ml phosphate buffered saline, pH 7.2, once prior to lipofectin +/−oligonucleotide treatment.
The test oligonucleotides were added to cell cultures in the presence of 2.5 μg of DOTMA/DOPE (Lipofectin; Life Technologies, Inc.) for four hours. The oligonucleotide was tested at 0.2 μM unless otherwise indicated. Controls were the cultures treated with lipofectin but without the oligonucleotide. After 4 hours the medium containing the oligonucleotide was removed and washed with 5 ml of growth medium. The cells were then cultured in growth medium containing 10% fetal bovine serum for seven to ten days. Surviving cells were visualized by methylene blue staining, and colonies were scored. In some experiments cell aliquots were removed from the culture and viability was determined using the trypan blue exclusion test. Results were analyzed as percent of surviving cells compared to control cells.
AS-II-336-20 was tested for the ability to inhibit the proliferation of human tumour cells (Hela). Hela S3 cells (American Type Culture Collection, Rockville, Md., ATCC), and a Hela cell line (Hela 1 mM) previously selected for resistance to the antitumour agent, hydroxyurea, were tested (see results in Table 11). Two experiments were undertaken with Hela S3 cells. […] The same experiment was repeated with the Hela 1 mM cell line and with varying concentrations of the antisense construct AS-II-336-20 (see results in Table 11) with similar results, […] was an effective concentration for inhibiting colony formation.
To test the antisense effects of many of these sequences as phosphorthioate deoxyribonucleotides, they were examined in relative colony forming experiments conducted as described in Example 16 with a series of human tumour cell lines. The results (shown as % inhibition of colony forming ability) obtained with cancer cells derived from the bladder, breast, lung, colon, pancreas, prostate, liver and cervix, are shown in Table 13. The specific cell lines employed are as follows:
T24=bladder cell carcinoma HCT116=colon cell carcinoma A549=lung cell carcinoma MDA-MB-231=breast cell adenocarcinoma […]=pancreatic cell carcinoma PC-3=prostrate cell adenocarcinoma HepG2=hepatocellular carcinoma HeLaS3=cells isolated from a carcinoma of the cervix T-47D=breast ductal carcinoma H596=lung adenosquamous carcinoma cells Colo320=colon cell adenocarcinoma

[8] = tested on: H596 lung adenosquamous carcinoma cells; assay: Relative colony forming efficiency (Example 17, Table 13); details: averages of 2-8 determinations
How it was run: as §1

Sequence	Reduced relative colony forming efficiency, HepG2 (% inhibition of colony forming ability) [1] [%]	Reduced relative colony forming efficiency, T-47D (% inhibition of colony forming ability) [2] [%]	Reduced relative colony forming efficiency, PC-3 (% inhibition of colony forming ability) [3] [%]	Reduced relative colony forming efficiency, T24 (% inhibition of colony forming ability) [4] [%]	Reduced relative colony forming efficiency, MDA-MB-231 (% inhibition of colony forming ability) [5] [%]	Reduced relative colony forming efficiency, HCT116 (% inhibition of colony forming ability) [6] [%]	Reduced relative colony forming efficiency, A549 (% inhibition of colony forming ability) (A549 lung cell carcinoma) [%]	Reduced relative colony forming efficiency, MIA PaCa-2 (% inhibition of colony forming ability) [7] [%]	Reduced relative colony forming efficiency, Hela S3 (% inhibition of colony forming ability) (Hela S3 cells) [%]	Reduced relative colony forming efficiency, 11596 (% inhibition of colony forming ability) [8] [%]	Reduced relative colony forming efficiency, HepG2 (% inhibition of colony forming ability) ([1]; listed as AS-II-75-20 *) [%]	Reduced relative colony forming efficiency, PC-3 (% inhibition of colony forming ability) ([3]; listed as AS-II-75-20 *) [%]	Reduced relative colony forming efficiency, T24 (% inhibition of colony forming ability) ([4]; listed as AS-II-75-20 *) [%]	Reduced relative colony forming efficiency, MDA-MB-231 (% inhibition of colony forming ability) ([5]; listed as AS-II-75-20 *) [%]	Reduced relative colony forming efficiency, MIA PaCa-2 (% inhibition of colony forming ability) ([7]; listed as AS-II-75-20 *) [%]
GCACGGGCGACC (antisense dG*dC*dA*dC*dG*dG*dG*dC*dG*dA*dC*dC) [AS-II-127-12]	71.75	37.54	79.56	50.63	38.46	54.34	69.33	53.34	86.45						
TCCTCGGCGGTCCAAA (antisense dT*dC*dC*dT*dC*dG*dG*dC*dG*dG*dT*dC*dC*dA*dA*dA) [AS-II-496-16]	54.8	10.79	88.84	78.48	45.8	70.85	74.45		52.21						
ATCGCCGCCGTG (antisense dA*dT*dC*dG*dC*dC*dG*dC*dC*dG*dT*dG) [AS-II-1775-12]	43.97		78.17	85.54	48.6		63.55	27.78	68.61	18.6					
CGCGCGCTCCCGGCCCTTCC (listed as DNA, chemistry not fully specified) [AS-II-75-20]	97.89	32.95	83.46	95.83	95.14	44.4	60.08	52.07	93.01		35.4	68.25	73.42	49.3	97.38
CGGCGGCGTGTT (antisense dC*dG*dG*dC*dG*dG*dC*dG*dT*dG*dT*dT) [AS-II-288-12]	65.89		74.01	30.38	52.1	67.57	70.49	30.09	57.63	12.67					
GACACAAGGCATCGTTTCAA (antisense dG*dA*dC*dA*dC*dA*dA*dG*dG*dC*dA*dT*dC*dG*dT*dT*dT*dC*dA*dA) [AS-II-784-20]	80.89	85.39	88.99	87.23	33.92	78.09	83.8	62.04	81.48						
CGCGCTCCCGGCCC (antisense dC*dG*dC*dG*dC*dT*dC*dC*dC*dG*dG*dC*dC*dC) [AS-II-79-14]	70.81	70.81	85.32	38.4	48.6	45.56	79.17	38.89	28.64						
CCCAGTTCCAGCATAAGTCT (antisense dC*dC*dC*dA*dG*dT*dT*dC*dC*dA*dG*dC*dA*dT*dA*dA*dG*dT*dC*dT) [AS-II-1182-20]	92.23	92.41	92.76	94.51		88.13	80.06	84.72	90.61						
AAAACCTTGCTAAAACCCAG (antisense dA*dA*dA*dA*dC*dC*dT*dT*dG*dC*dT*dA*dA*dA*dA*dC*dC*dC*dA*dG) [AS-II-1197-20]	76.32	81.95	74.4	90.3	50.35	84.85	89.15	70.68	82.68						
AAAAATCAGCCAAGTAAGGG (antisense dA*dA*dA*dA*dA*dT*dC*dA*dG*dC*dC*dA*dA*dG*dT*dA*dA*dG*dG*dG) [AS-II-1381-20]	62.34	93.62	75	71.37	44.41	89.48	86.02	73.77	80.53						
